{"source": "patent US9120776B2", "about": "“Condensed heterocyclic compound” (Takeda Pharmaceutical Company Limited, priority 2011, dated 2015)", "key": {"[1]": {"test_system": "Th17 cells", "experiment": "Mouse Th17 Cell Differentiation Test (IL-17A in culture supernatant, ELISA)", "format": "cell-based", "details": "inhibitory rate at 10 μM of test compound; mouse CD4 positive naive T cells, 4 days, IL-17A by ELISA; 10 µM", "description": "CD4 positive naive T cells were collected from the spleen cells of BALB/c mice (female, 8-11w, Charles River Laboratories Japan, Inc.) using CD4+CD62L+ T Cell Isolation kit II (Miltenyi Biotec). The CD4 positive naive T cells in a 96 well plate (3×10^5 cells/well) were stimulated (37° C. for culture) with anti-mouse CD3ε antibody (Bio X cell) (10 μg/mL, solid phase) and anti-CD28 antibody (Bio X cell) (5 μg/mL) for 4 days in the presence of anti-IFN-γ antibody (BioLegend), anti-IL-4 antibody (BioLegend), anti-IL-2 antibody (BioLegend), IL-6, TGF-β and IL-23 to differentiate into Th17 cells. The compound was dissolved in DMSO and then added thereto. The cells were cultured under these conditions for 4 days, and differentiation of the Th17 cells was evaluated by using the concentration of IL-17A, which was measured by ELISA, in the culture supernatant obtained by centrifugation."}, "[2]": {"test_system": "Th17 cells", "experiment": "Human Th17 Cell Differentiation Test (IL-17A in culture supernatant, ELISA)", "format": "cell-based", "details": "144 h; inhibitory rate at 10 μM of test compound; human CD4 positive naive T cells, 6 days, IL-17A by ELISA", "description": "CD4 positive naive T cells were isolated from peripheral blood mononuclear cells (PBMC) collected from human peripheral blood by a density gradient centrifugation method. The CD4 positive naive T cells were seeded in a 96 well plate (2×10^4 cells/well), and stimulated (37° C. for culture) with anti-CD 3/28Ab Dynabeads (Invitrogen) for 6 days in the presence of IL-1β, IL-6, IL-23, TGFβ, anti-IFNγ Ab (BioLegend) and anti-IL-4 Ab (BioLegend) to differentiate into Th17 cells. The compound was dissolved in DMSO and then added thereto. After culture for 6 days, the concentration of IL-17A in the culture supernatant obtained by centrifugation was measured by ELISA to evaluate differentiation of the Th17 cells."}, "[3]": {"test_system": "human PBMC", "experiment": "IL17 Production Test in Human PBMC", "format": "cell-based", "details": "72 h, inhibitory rate at 10 μM of test compound, anti-CD3/CD28 stimulation, 3 days, IL-17A by ELISA", "description": "Peripheral blood mononuclear cells (PBMC) collected from human peripheral blood by a density gradient centrifugation method were stimulated by Dynabeads (registered trade mark; anti-CD3/CD28 antibody) and cultured at 37° C. for 3 days. The compound was dissolved in DMSO and then added thereto. After culture for 3 days under such conditions, the concentration of IL-17A in the culture supernatant obtained by centrifugation was measured by ELISA to evaluate the effect of the compound on IL-17 production."}, "[4]": {"test_system": "IL-17A gene expression", "experiment": "IL-17A gene expression induced by anti-CD3 antibody stimulation in mouse colon", "format": "in vivo", "details": "po, Balb/c mice", "description": "(§1) An anti-CD3 antibody (5 μg/500 μL/mouse, BioXcell) or saline (500 μL/mouse) was intraperitoneally administered to Balb/c mice (female, 8 weeks old). Three hours after the administration, the mice were anesthetized by ether inhalation, and euthanized by cervical spine fracture dislocation. Then, the mice underwent laparotomy, and colons were isolated. The obtained colons were washed with saline, and then, immersed in RNA stabilization buffer (RNAlater, QIAGEN) at 4° C. for 18 hours or longer. Meanwhile, a suspension of a compound in 0.5% methylcellulose was orally administered an hour before administration of anti-CD3 antibody.\n(§2) The colon tissues were retrieved from RNAlater, and immediately immersed in 5 mL of RLT buffer (RNeasy Mini Kit, QIAGEN). Then, the tissues were homogenized at room temperature. Total RNA was extracted from the homogenized solution in accordance with the protocol of RNeasy Mini Kit (QIAGEN), and cDNA was prepared using high capacity RNA-to-cDNA Kit (Applied biosystems). mRNAs of various cytokines were detected by realtime-PCR (TaqMan PCR) using the obtained cDNA as a template. TaqMan universal master mixII (Applied biosystems) was used as PCR buffer, and TaqMan Gene Expression Assays (Applied biosystems): Mm00439619_m1 (IL-17A), Mm00801778 m1 (IFN-γ) and 43252341E (β-actin) were used for detection of each cytokine gene, respectively. The expression levels of each gene were shown as normalized values calculated using β-actin expression level.\nAll the data were shown as mean values±SE. Statistical analyses were performed by Student's t test and William's test."}, "[5]": {"test_system": "IFN-γ gene expression", "experiment": "IFN-γ gene expression induced by anti-CD3 antibody stimulation in mouse colon", "format": "in vivo", "details": "30, 100 and 300 mg/kg, po, Balb/c mice", "description": "as §1\nas §2, with “TaqMan universal master mixII (Applied biosystems) was used as PCR buffer, and TaqMan Gene Expression Assays (Applied biosystems): Mm00439619_m1 (IL-17A), Mm00801778 m1 (IFN-γ) and 43252341E (β-actin) were used for detection of each cytokine gene, respectively.” left out, “level. […]” for “level.”"}, "[6]": {"test_system": "IL-17A gene expression", "experiment": "IL-17A gene expression in lymph node of EAE rat model", "format": "in vivo", "details": "30, 100 and 300 mg/kg, po twice a day; EAE-sensitized Lewis rat, 5th day", "description": "A killed Mycobacterium tuberculosis, H37Ra (DIFCO), was suspended at the concentration of 2 mg/mL in Freund Incomplete adjuvant (DIFCO), and 5 mg of MBP (Sigma) was dissolved in 1.25 mL of saline (Otsuka). These two solutions were mixed at the ratio of 1:1 using glass syringe with a three-way stopcock until emulsion was obtained. The emulsion was intracutaneously administered to the bottom of the right foot of Lewis rats (male, 7 weeks old) at 0.1 mL/rat.\nA suspension of the compound of Example 14 in 0.5% methylcellulose was orally administered twice a day from the day of sensitization at the dose of 30, 100 or 300 mg/kg. The last administration was performed on the 5th day after sensitization, and an autopsy was performed 4 hours after the last administration.\nThe autopsy was performed on the 5th day after the sensitization, and popliteal lymph nodes of the right leg were collected. […] The synthesized cDNA was detected by PCR reaction using Taqman Gene Expression Master Mix (Applied Biosystems) and 7900HT Fast realtime PCR system (Applied Biosystems) (Stage 1: 50° C., 2 min, Stage 2: 95° C., 10 min, Stage 3: 95° C., 15 sec, 60° C., 1 min, 40 cycle). […]"}}, "data": [{"smiles": "CCn1c2ccccc2c2cc(NC(=O)CC(C)CC(=O)Nc3ccc(C#N)c(Cl)c3)ccc21", "note": "(centres unmarked) [Example 14, N-(3-chloro-4-cyanophenyl)-N′-(9-ethyl-9H-carbazol-3-yl)-3-methylpentanediamide]", "values": [{"measurement": "inhibitory rate (%)", "setting": "[1]", "result": 96.0, "unit": "%"}, {"measurement": "inhibition at 10 µM", "setting": "[2]", "result": 99.3, "unit": "%"}, {"measurement": "inhibition at 10 µM", "setting": "[3]", "result": 95, "unit": "%"}, {"measurement": "inhibition rate of IL-17A expression", "setting": "[4]; 30 mg/kg", "result": 10, "unit": "%"}, {"measurement": "inhibition rate of IL-17A expression", "setting": "[4]; 100 mg/kg", "result": 25, "unit": "%"}, {"measurement": "inhibition rate of IL-17A expression", "setting": "[4]; 300 mg/kg", "result": 53, "unit": "%"}, {"measurement": "effect on IFN-γ expression", "setting": "[5]", "result": "did not affect IFN-γ expression"}, {"measurement": "effect on increase in IL-17A gene expression in lymph node", "setting": "[6]", "result": "tended to suppress the increase in IL-17A gene expression"}]}]}
